In one data set the test system is ventricular arrhythmias. Description: Harris test (ventricular arrhythmias after experimental infarct). It is filed as in vivo, dog. Particulars: cumulative dose 14 mg/kg i.v. The text has this:
(§1) Narcisse et al, Ann. Pharma. Fr., 37, 325-330 (1979), in the rat by the aconitine intoxication test of S. Witchitz et al, Coeur Med. Int., X(2), 281-286, (1971) and in the dog by the Harris test described in Circulation, 1, 1318, (1950) and by the test with adrenalin after experimental infarct of I. J. Steffe et al, J. Pharmacol. Exp. Ther., 214, 50-57 (1980).
The ligature of the anterior interventricular artery in the anesthetized dog causes the appearance of an experimental infarct of the myocardium followed by considerable ventricular arrhythmias.
The dogs were studied 24 to 48 hours after the intervention. The electrocardiogram (ECG) was then recorded permanently, the conscious dog being at rest in an isolated laboratory. After a period of 3 hours of ECG recording, allowing for the measurement of the cardiac frequency of the dog the frequency of ventricular extrasystoles (ESV)--pre-treatment control period--the derivative to be studied was injected intravenously for 1 minute. Continuous recording of the ECG enabled, in the hours following the injection, measurement of the frequency of the ESV/mn for successive periods from 30 to 60 min. The number of ESV per minute measured for 3 hours during the control period varied from 66 to 172/min with an average of 111/min. […] The length of this antiarrhythmic effect observed varied depending on the derivatives from 1 hour to more than 5 hours. For example, the percentage decrease of the ESV/min in the case of the derivative of Example 11 (cumulative dose 14 mg/kg) was 96% (0 to 1/2 hour), 50% (1/2 to 1 hour) and 68% (1 to 2 hour). The corresponding values for the derivative of Example 4 (3 mg/kg) were 44%, 55% and 45%, respectively.

A short description of data set [1]: Acute toxicity in the mouse (LD 50, Litchfield and Wilcoxon). The note with it: in vivo. As to the method:
The acute toxicity of the derivatives of the invention were studied by intraperitoneal administration (I.P.) on the mouse (10 animals, 5 males and 5 females per dose) and calculation of the lethal dose 50 (LD 50) in accordance with the method of Litchfield and Wilcoxon (J. Pharmacol. 96, 99-113 (1949)).
In certain cases (derivatives of Examples 4, 6, 9), the LD 50 was also calculated after oral administration (P.O.) of the derivatives.

Data set [2] deals with anesthetized dog. Description: Hemodynamic (cardiovascular) tolerance in the anesthetized dog. The note with it: i.v., vs control period. It is filed as in vivo. The procedure:
The hemodynamic tolerance of the derivatives of the invention was studied on dogs anesthesized with sodium pentobarbital. Endocavitary pressures were measured by means of catheters connected to Statham sensors while external recording of the electrocardiogram (E.C.G.) provided the measurement of cardiac frequency. Cardiac flow was measured by means of an electromagnetic sensor placed on the beginning of the aorta. The total peripheral resistances R were calculated from the value of the average aortic pressure (P) and the cardiac flow (Q) in accordance with the formula R=P/Q.
After measurement of the parameters during a control period, the derivatives were injected intravenously in cumulative doses (30 minute interval between doses). The variations of the parameters in relation to the control period were measured within 20 and 30 minutes after each injection and are expressed as a percentage of variation in relation to the control.
Table 2 summarizes the variations in hemodynamic parameters observed between the first and last injections.

Data set [3] deals with anoxic ventricular fibrillation. Description: Lawson test (cardiac antifibrillatory power, chloroform). It is filed as in vivo. Particulars: ip; mouse, intraperitoneal, 10 minutes before chloroform. As to the method: The Lawson test is a test for the study of the cardiac antifibrillatory power of the derivatives. The mice (20 per group) received an intraperitoneal injection of the derivative 10 minutes before being placed in a chloroform-saturated atmosphere. Upon respiratory arrest, the thorax was opened (5 to 10 seconds) and whether or not the heart was in ventricular fibrillation was checked. The efficacy dose 50 (ED 50) of the derivative being studied is the dose which protects half the mice against anoxic ventricular fibrillation.

The subject of data set [4] is anesthetized dog. Description: Electrophysiological studies on the anesthetized dog. The note with it: i.v. It is filed as in vivo. The procedure: This study was carried out on dogs anesthetized with pentobarbital, with a closed thorax, by means of bipolar catheter-electrodes introduced into the cardiac cavities by transcutaneous venous and arterial means. The surface electrocardiogram (standard derivation D2) is recorded permanently.
By means of a programmable JANSEN (R) stimulator, the following parameters may be measured:
spontaneous cardiac frequency (FC);
sinus recuperation time (SRTc) after auricular stimulation imposed at 160 b/mn for 1 mn;
intracardiac conduction times (auriculohisien at a constant frequency, His-Purkinje, intraventricular);
the effective and functional refractory periods measured at an imposed constant frequency, with the extrastimulus method.
During the electrophysiological study, the derivatives were injected intravenously for 2 minutes for each dose and at 30 minute intervals between each dose. The doses are expressed as a cumulative value and as a base term.
The measurement of the various parameters was carried out before the injection of the first dose (control period) and from 10 to 28 minutes after the injection of each dose of the substance. The results are expressed as a percentage of variation in relation to the control period.

Data set [5] is described as follows: Lawson test (cardiac antifibrillatory power, chloroform). The note with it: in vivo, ip; mouse, intraperitoneal; read-out: Maximum Dose Tolerated.
In data set [6] the test system is ventricular arrhythmias and death induced by the aconitine. As to the kind of experiment: Aconitine intoxication test in the anesthetized rat. It is filed as in vivo. The note with it: i.v., vs untreated control.
Text: as §1
The anesthetized rat was intoxicated with an intravenous perfusion of aconitine while its electrocardiogram (ECG) was permanently recorded. During the perfusion at constant rate, the time necessary for the appearance of ventricular arrhythmias, successive extrasystoles (ESV), then stable ventricular tachycardium (TV) and the time within which the animal died were measured.
The animals were divided into a control group (untreated) and treated groups (different doses). The results are expressed as a percentage of prolonging the time of appearance of the arrhythmias and of death of the treated groups in reaction to the control group.
The results obtained are shown in Table 4 below and express the percentage of prolongation of the time of appearance of ventricular arrhythmias (ventricular extrasystoles and ventricular tachycardiums), and of the death, induced by the aconitine after an intravenous injection (I.V.) of several derivatives of the invention, in relation to a group of untreated control animals.

The subject of data set [7] is ventricular arrhythmias with adrenalin. Description: Test with adrenalin after experimental infarct. It is filed as in vivo, dog.
Text: as §1
2 to 5 days after an experimental infarct, the effects of discontinuous injections (in intravenous bolus of […] of basic adrenalin) of adrenalin were observed on the electrocardioagram of the conscious dog.
During a first phase (control) of the experiment, three successive injections of adrenalin were given and, in the 2 minutes following each injection, the frequency of the ventricular extrasystoles was measured. In this manner, by increasing the dose of adrenalin as necessary, it was possible to determine the dose which caused the appearance of ventricular extrasystoles at a higher frequency than or equal to half the total number of ventricular systoles.
After injection of the derivative to be tested, the same dose of adrenalin was reinjected after 5 minutes, then 30 minutes, 60 minutes, 90 minutes, etc., and its effects were compared to those observed during the control period.
The results therein are expressed as a percentage of extrasystoles (on the total number of systoles) measured during the 2 minutes following the injection of adrenalin before and after the administration of the derivative to be tested.

Setting [8] is: ip, intraperitoneal, read-out: LD 50 I.P.
[9] abbreviates: doses 1 to 19 mg/kg, 2 evaluations.
Setting [10] is: 1 mg/kg, control period 48% of ESV.
Setting [11] is: cumulative doses 0.1 to 3 mg/kg.
Where [12] appears, read: doses 0.5 to 5 mg/kg, 3 evaluations.
Where [13] appears, read: 4.3 mg/kg, control period 94% of ESV.

Read-outs that look alike come from different tables or passages of the source.

As for `CC1(NC(=O)CCCc2ccccc2)C2CC3CC1CN(C2)C3(C)C` (stereo not shown) [Example 11, N-(4-phenylbutyryl)-4-amino-4,8,8-trimethyl-1-azaadamantane], the “Percentage decrease of the ESV/min” value in the data set with ventricular arrhythmias (0 to 1/2 hour) is recorded as 96%; with ventricular arrhythmias (1/2 to 1 hour), 50%; in the data set with ventricular arrhythmias (1 to 2 hour), 68%.
Turning to `CC1(NC(=O)Cc2ccccc2)C2CC3CC1CN(C2)C3(C)C` (stereo not shown) [Example 9, N-phenylacetyl-4-amino-4,8,8-trimethyl-1-azaadamantane], in data set [1] (setting [8]), the LD50 is 430 mg/kg. Moreover, in data set [1] (oral, read-out: LD 50 P.O.), the LD50 is 2400 mg/kg. Further, in the data set on anesthetized dog [2] (cumulative doses 1 to 10 mg/kg), the “Cardiac Flow, percentage of variation” value lay in the range of 0 to -30%; the “Cardiac Frequency, percentage of variation” value is given as 0 to -12%; the “Total Peripheral Resistances, percentage of variation” value was -5 to +15%; the “dp/dt/p Left Ventricular, percentage of variation” value lay in the range of 0 to -33%. The same compound showed an ED50 in data set [3] of 90 mg/kg. In the data set on anesthetized dog [4] (setting [9]), the “F.C. (cardiac frequency), variation” value is 0%; the “HV (time of His-Purkinje conduction), variation” value is on record as “+18 to +100%”; the “PREA (effective auricular refractory period), variation” value was “+6 to +45%”; the “PREV (effective ventricular refractory period), variation” value was “+2 to +15%”. Besides, in the data set with anesthetized dog [4] (setting [9]), the “QRS (time of intraventricular conduction), variation” value was 0 to +23% and the “St-H (time of auriculohisien conduction), variation” value is listed as 0 to +30%. Besides, in data set [5], the MTD turned out to be 200 mg/kg. In data set [6] (10 mg/kg), the “Prolongation of time of appearance of ventricular extrasystoles (ESV)” value (shortened to “Prolongation of time of appearance … (ESV)”) was “+31%”, the “Prolongation of time of appearance of ventricular tachycardium (TV)” value (from here on “Prolongation of time of appearance … (TV)”) is listed as “+79%” and the “Prolongation of time to death” value is “+44%”. Also, in data set [6] (20 mg/kg), the “Prolongation of time of appearance … (ESV)” value was “+100%”, the “Prolongation of time of appearance … (TV)” value is recorded as “+79%” and the “Prolongation of time to death” value is “+84%”. For the same compound, in data set [6] (40 mg/kg), the “Prolongation of time of appearance … (ESV)” value is “+171%”, the “Prolongation of time of appearance … (TV)” value is recorded as “+147%” and the “Prolongation of time to death” value is listed as “+88%”. Also, in data set [7] (setting [10]), the “ESV Percentage at 5 min” value came to 11%, the “ESV Percentage at 30 min” value is given as 27% and the “ESV Percentage at 60 min” value stood at 45%.
With `CC1(NC(=O)c2ccc(N)cc2)C2CC3CC1CN(C2)C3(C)C` (stereo not shown) [Example 3, N-(p-aminobenzoyl)-4-amino-4,8,8-trimethyl-1-azaadamantane], the LD50 in data set [1] (setting [8]) amounted to 95 mg/kg. In addition, in the data set with anesthetized dog [2] (setting [11]), the “Cardiac Flow, percentage of variation” value is “+7 to -32%”; the “Cardiac Frequency, percentage of variation” value lay within 0 to -14%; the “Systolic Arterial Pressure, percentage of variation” value is listed as -3 to -33%; the “Total Peripheral Resistances, percentage of variation” value was -10 to +7%. In addition, in the data set on anesthetized dog [2] (setting [11]), the “dp/dt/p Left Ventricular, percentage of variation” value was “+14 to -50%”. For the same compound, the ED50 in data set [3] came out at 37 mg/kg. For the same compound, in the data set on anesthetized dog [4] (setting [12]), the “F.C. (cardiac frequency), variation” value was in the range of 0 to -24%; the “HV (time of His-Purkinje conduction), variation” value is on record as “+13 to +98%”; the “PREA (effective auricular refractory period), variation” value is “+2 to +50%”; the “PREV (effective ventricular refractory period), variation” value is given as 0 to +20%. Also, in the data set on anesthetized dog [4] (setting [12]), the “QRS (time of intraventricular conduction), variation” value was “+8 to +39%” and the “St-H (time of auriculohisien conduction), variation” value is recorded as “+2 to +76%”. Further, the MTD in data set [5] was found to be 50 mg/kg. In data set [7] (setting [13]), the “ESV Percentage at 5 min” value was found to be 63%, the “ESV Percentage at 30 min” value worked out at 77% and the “ESV Percentage at 60 min” value was found to be 90%.

(Values after patent US4578382A, “4-acylamino-1-azaadamantanes, and compositions for use thereof in medicine” (Etablissements Nativelle S.A., priority 1981, dated 1986).)
